This passage reports IC50 results from paper doi:10.1101/208439v1 (biorxiv, 2017).

Molecules are shown by their SMILES. Read-outs that look alike come from different tables or passages of the source.

The target in one assay is T1, NSD1 (Homo sapiens, UniProt Q96L73).
T1 construct: residues 1538-2696, N-terminal His tag, insect cell/baculovirus
T1 sequence (Q96L73 1538-2696): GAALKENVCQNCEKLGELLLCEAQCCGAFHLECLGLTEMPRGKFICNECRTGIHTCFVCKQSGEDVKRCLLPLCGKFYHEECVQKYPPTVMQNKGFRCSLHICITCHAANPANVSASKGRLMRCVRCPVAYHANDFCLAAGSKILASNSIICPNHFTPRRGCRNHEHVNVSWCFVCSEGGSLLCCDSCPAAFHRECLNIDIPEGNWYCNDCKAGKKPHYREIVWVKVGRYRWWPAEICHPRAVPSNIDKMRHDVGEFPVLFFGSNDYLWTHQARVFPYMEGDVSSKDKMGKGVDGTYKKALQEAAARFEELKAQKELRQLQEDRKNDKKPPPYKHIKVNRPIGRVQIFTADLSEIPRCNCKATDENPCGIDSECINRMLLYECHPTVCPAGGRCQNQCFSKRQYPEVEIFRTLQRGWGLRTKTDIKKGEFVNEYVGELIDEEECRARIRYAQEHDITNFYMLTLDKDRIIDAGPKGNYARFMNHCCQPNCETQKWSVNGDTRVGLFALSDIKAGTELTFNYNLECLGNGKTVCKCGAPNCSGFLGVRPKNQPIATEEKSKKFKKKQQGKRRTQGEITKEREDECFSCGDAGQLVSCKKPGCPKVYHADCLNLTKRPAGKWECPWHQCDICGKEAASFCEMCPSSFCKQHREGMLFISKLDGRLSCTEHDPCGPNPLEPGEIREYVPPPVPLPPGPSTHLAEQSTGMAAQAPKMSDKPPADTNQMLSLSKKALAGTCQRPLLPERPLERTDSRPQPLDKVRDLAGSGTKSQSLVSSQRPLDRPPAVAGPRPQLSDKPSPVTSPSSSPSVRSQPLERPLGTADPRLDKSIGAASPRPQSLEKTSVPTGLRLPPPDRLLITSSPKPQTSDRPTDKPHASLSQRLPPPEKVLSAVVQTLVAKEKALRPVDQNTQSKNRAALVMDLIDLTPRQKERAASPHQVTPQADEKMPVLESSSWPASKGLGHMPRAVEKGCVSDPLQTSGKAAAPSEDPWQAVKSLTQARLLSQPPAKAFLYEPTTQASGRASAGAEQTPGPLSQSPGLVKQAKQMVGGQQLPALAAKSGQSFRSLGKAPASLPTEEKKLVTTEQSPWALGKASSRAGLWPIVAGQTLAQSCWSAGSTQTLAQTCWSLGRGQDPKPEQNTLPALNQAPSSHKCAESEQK
In words: HotSpot [3H]SAM filter-binding methyltransferase assay. It counts as biochemical. To be noted: nucleosomes, […] SAM, pH […] MgCl2, […] DTT, […] °C, single experiment.

The next assay addresses T2, NSD2 (Homo sapiens, UniProt O96028).
T2 construct: full length (residues 2-1365), N-terminal His tag, insect cell/baculovirus
T2 sequence (O96028 2-1365): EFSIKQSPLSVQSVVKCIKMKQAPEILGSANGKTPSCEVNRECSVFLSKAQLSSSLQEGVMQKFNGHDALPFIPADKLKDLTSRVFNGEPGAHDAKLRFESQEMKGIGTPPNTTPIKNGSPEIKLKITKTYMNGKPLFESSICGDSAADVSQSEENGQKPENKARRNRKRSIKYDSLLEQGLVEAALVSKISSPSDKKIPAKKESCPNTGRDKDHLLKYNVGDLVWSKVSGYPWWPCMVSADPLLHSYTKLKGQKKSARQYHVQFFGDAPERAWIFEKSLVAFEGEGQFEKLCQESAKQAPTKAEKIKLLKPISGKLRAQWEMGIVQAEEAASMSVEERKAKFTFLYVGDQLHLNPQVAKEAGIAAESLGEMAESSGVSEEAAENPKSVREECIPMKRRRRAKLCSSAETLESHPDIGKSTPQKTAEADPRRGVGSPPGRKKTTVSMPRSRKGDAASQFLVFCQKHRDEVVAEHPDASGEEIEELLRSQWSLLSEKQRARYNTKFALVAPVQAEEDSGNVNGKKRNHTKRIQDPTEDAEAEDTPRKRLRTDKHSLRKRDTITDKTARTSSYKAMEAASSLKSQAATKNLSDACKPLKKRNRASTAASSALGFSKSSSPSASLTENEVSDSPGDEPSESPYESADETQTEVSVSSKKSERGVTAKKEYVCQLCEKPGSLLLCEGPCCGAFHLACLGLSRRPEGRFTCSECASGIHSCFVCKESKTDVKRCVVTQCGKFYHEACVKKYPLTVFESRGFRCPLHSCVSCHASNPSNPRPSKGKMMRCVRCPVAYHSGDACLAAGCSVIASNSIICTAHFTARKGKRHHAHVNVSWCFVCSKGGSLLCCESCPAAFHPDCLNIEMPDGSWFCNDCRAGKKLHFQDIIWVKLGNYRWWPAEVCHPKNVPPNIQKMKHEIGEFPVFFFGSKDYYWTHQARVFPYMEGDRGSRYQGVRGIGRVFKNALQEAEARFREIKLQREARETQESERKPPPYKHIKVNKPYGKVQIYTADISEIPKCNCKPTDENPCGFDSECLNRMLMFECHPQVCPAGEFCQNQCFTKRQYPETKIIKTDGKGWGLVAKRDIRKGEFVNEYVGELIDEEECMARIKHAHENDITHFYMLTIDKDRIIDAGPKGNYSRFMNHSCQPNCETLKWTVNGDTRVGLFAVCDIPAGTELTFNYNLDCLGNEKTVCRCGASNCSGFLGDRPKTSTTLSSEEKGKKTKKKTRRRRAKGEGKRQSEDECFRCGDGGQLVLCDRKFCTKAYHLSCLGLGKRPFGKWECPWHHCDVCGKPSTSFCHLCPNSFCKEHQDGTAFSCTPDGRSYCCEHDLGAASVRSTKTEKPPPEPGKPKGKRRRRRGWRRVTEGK
The assay is described as above. To be noted: nucleosomes […], […] SAM, pH […] DTT, […] °C. It counts as biochemical.

The target in the next assay is SMYD2 (Homo sapiens, UniProt Q9NRG4). Kind of assay: biochemical.

Usually IC50 stands for the concentration that inhibits the measured activity by half.

SMYD2, sequence (Q9NRG4 whole entry): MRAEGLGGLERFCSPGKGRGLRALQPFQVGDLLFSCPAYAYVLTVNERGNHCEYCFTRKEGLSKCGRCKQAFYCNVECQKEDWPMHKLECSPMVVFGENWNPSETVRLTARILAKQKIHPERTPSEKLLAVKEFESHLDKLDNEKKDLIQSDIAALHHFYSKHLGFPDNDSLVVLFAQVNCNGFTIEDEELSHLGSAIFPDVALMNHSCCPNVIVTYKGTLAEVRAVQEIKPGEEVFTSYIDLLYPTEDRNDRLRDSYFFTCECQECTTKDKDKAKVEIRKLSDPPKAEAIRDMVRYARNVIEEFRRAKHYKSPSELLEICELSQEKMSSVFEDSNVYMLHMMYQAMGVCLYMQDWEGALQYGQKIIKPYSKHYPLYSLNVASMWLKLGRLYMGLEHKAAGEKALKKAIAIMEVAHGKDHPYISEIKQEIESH

Turning to `CC1(C)CCC(CN2CCN(c3ccc(C(=O)NS(=O)(=O)c4ccc(NCC5CCOCC5)c([N+](=O)[O-])c4)c(Oc4cnc5[nH]ccc5c4)c3)CC2)=C(c2ccc(Cl)cc2)C1` [ABT-199], the IC50 amounted to 2400 nM at NSD1, 1700 nM on NSD2 and 44000 nM at SMYD2.
Consider `O=C1C(Cl)=C(NCCN2CCOCC2)C(=O)c2ncccc21` [DA3003-1], for which the IC50 was 110 nM at NSD1; 170 nM at NSD2 (compound is redox-active); 1700 nM at SMYD2 (read-out: DA3003-1 IC50, inhibitor).
Regarding `COc1cccc(-n2nc(C(=O)O)cc2-c2ccc(C3CCCCC3)c(Cl)c2)c1` [TC LPA5 4], the IC50 at NSD1 turned out to be 12000 nM; at NSD2, 8500 nM; on SMYD2, 21000 nM.
